From US7776572B2, “Method for reducing loss of enzyme activity during storage” (Corning Incorporated, priority 1996, dated 2010)
Like-named read-outs stand apart in the source and are kept apart here.

What was measured:
HRP-Goat A'Mouse IgG = experiment: Enzymatic determination of protein binding to coated medium binding polystyrene plate; conditions: coated medium binding PS; versus uncoated high binding polystyrene plate; absorbance 405 nm
Summary of the method: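 Read-out of HRP-goat anti-mouse IgG (0.04 μg/ml in PBS pH 7.4) binding to surfactant-coated medium-binding polystyrene, 1 h at room temperature, then five washes. ABTS/H2O2 substrate for 15 min in the dark, stopped with 1% SDS, absorbance at 405 nm; reduction in binding relative to an untreated high-binding plate.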

[1] = system: BSA protein (Bovine Serum Albumin, Fraction V); experiment: BSA binding to coated polystyrene 24-well plates at different pH, colloidal gold stain; conditions: for Absorbance (550 nm) pH = 9.2: BSA 10 μg/ml in 0.10 M NaHCO3 buffer; for Absorbance (550 nm) pH = 7.4: BSA 10 μg/ml in 0.10 M PBS; for Absorbance (550 nm) pH = 4.6: BSA 10 μg/ml in 0.10 M acetate buffer
bound protein = experiment: Colloidal gold staining of bound protein after MDCK culture in media containing 5% FBS, visual; conditions: colloidal gold after cell culture, visual observation
Summary of the method: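 Polystyrene wells coated with non-ionic surfactants, gamma-sterilized at 1.5 Mrad, seeded with 5.6×10^4 MDCK cells per well in medium with 5% FBS and cultured 2 days at 37 °C, 5% CO2. After fixing, bound protein detected by colloidal gold staining; visual assessment only.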

IgG (horse) = experiment: IgG binding to 24-well plates, surfactant dried or not dried before H2O rinse, colloidal Au; conditions: 0.5% surfactant in H2O/isopropanol (90/10); for Absorbance (550 nm) Dried before H2O rinse: then rinsed 5x; for Absorbance (550 nm) H2O rinsed before drying: not dried, rinsed 5x immediately
Protocol: Duplicate 24-well plates were prepared as follows. Individual wells were filled with 3 ml of non-ionic surfactants at 0.5% (weight/volume) in H2O/isopropanol (90/10 weight/volume).
The duplicate plates were incubated for 30 minutes at room temperature on a rocker table and then emptied. One plate was tapped out and then allowed to dry at room temperature in a hood. It was then rinsed 5× with dI H2O. The second plate was not allowed to dry, but instead was immediately rinsed 5× with H2O. The plates were then tested for protein binding by filling each well with 0.5 ml of IgG (horse) at 10 μg/ml in PBS buffer and incubating for 30 minutes on a rocker table at room temperature. The plates were then rinsed with dI H2O and stained overnight with colloidal Au.

[2] = system: GAM-IgG-HRP (goat-anti-mouse-IgG-horseradish peroxidase enzyme labeled antibody); experiment: Bound enzyme labeled antibody on strips exposed to aqueous surfactant, rinsed or not rinsed, ABTS readout; conditions: 0.1% surfactant in H2O/isopropanol (95/5), not dried, rinsed 5x with dI H2O
Protocol: Medium binding (catalog #2587) and high binding (catalog #2581) polystyrene 96-well plates (8-well strips) manufactured by Corning Costar were used as follows. […] Strips were incubated for 30 minutes at room temperature on a rocker table. Strips were then emptied and tapped out. […] Immediately following this procedure, each well was aliquoted 0.10 ml of GAM-IgG-HRP (goat-anti-mouse-IgG-horseradish peroxidase enzyme labeled antibody; Kirkegaard and Perry, Gaithersburg, Md., Catalog #074-1806) at 1.0 μg/ml in PBS buffer pH=7.4). Strips were incubated for one hour at room temperature on a rocker table. Strips were then rinsed 5× with PBS buffer containing 0.02% Tween-20 followed by post rinsing with H2O. […] Absorbance at 405 nm was measured on a Cambridge Technologies #7520 Plate Reader.

MDCK cells = experiment: MDCK cell attachment to coated polystyrene 24-well plates; type: cell-based; conditions: coated PS 24-well, gamma sterilized, media with 5% FBS, two days, visual
Protocol: The procedures used were as follows. Polystyrene 24-well plates were coated with the non-ionic surfactants listed in Table 5 in accordance with the procedures described in Materials and Methods. Uncoated plates were used as a control. For comparison, plates with a covalently attached acrylamide coating (Corning Costar Catalog #2500) and with a stearic acid coating were also tested. The stearic acid coating was applied in the same manner as the non-ionic surfactants again using a 0.1% (w/v) solution.
The plates were gamma sterilized at 1.5 Mrad and then inoculated with 5.6×10^4 MDCK […] per well in 1 ml of complete media containing 5% FBS (Fetal Bovine Serum). Incubation was carried out at 37° C. in a 5% CO2 atmosphere for two days. The plates were fixed and stained, and cell attachment was noted. Following this, the wells were stained using the colloidal gold technique to detect bound protein. Only visual observations were made.
Experiments were also performed with cells suspended in serum. The cells used in these experiments were MDCK cells. The surfactants used were the same as used in Table 5. Again, reduced binding of the cells to surfaces treated with a non-ionic surfactant was observed.

IgG = experiment: Protein binding to coated 0.45 micron PVDF membranes, Au stain; conditions: coated two times by immersion, 0.1% in isopropanol; IgG 10 μg/ml
Protocol: The experiments were performed using 0.45 micron PVDF membranes. The membranes were coated two times by immersion using 0.1% (weight/volume) of the following non-ionic surfactants in isopropanol: sorbitol mono-oleate, Pluronic® L-121, Pluronic® L-122, and Pluronic® L-123. The membrane was dried at room temperature after each of the two immersion coatings. The coated membranes were incubated with IgG 10 μg/ml in 0.1M PBS (pH 7.4) for 30 minutes at room temperature on an orbital shaker. The membranes were then rinsed three times with water in a clean plate, each rinse being performed for 5 minutes on the shaker. Thereafter, the membranes were stained with Au overnight, again on the shaker. An uncoated PVDF membrane was used as a control.

rat = conditions: cited from earlier work

Compound | % Reduction in Protein Binding (HRP-Goat A'Mouse IgG) [%] | Absorbance (550 nm) pH = 9.2 [1] | Absorbance (550 nm) pH = 7.4 [1] | Absorbance (550 nm) pH = 4.6 [1] | Visual Color Upon Protein Staining (bound protein) | Absorbance (550 nm) Dried before H2O rinse (IgG (horse)) | Absorbance (550 nm) H2O rinsed before drying (IgG (horse)) | Absorbance (405 nm) High Binding Polystyrene Rinsed [2] | Absorbance (405 nm) Medium Binding Polystyrene Rinsed [2] | MDCK Attachment (MDCK cells) | protein binding to coated PVDF membrane (IgG) | LD50 (rat) [grams/Kg] | LD50 (rat; in vivo) [grams/Kg]
CCCCCCCC/C=C\CCCCCCCCOCCOCCO [PEO(2) OLEYL ETHER] | 99.9 | 0.00 | 0.00 | 0.00 | None | 0.00 | 0.14-0.16 | 2.10 | 1.90 |  |  |  | 
PEO(20) SORBITOL TRI-STEARATE | 99.7 | 0.00 | 0.00 | 0.00 | None |  |  |  |  | None |  |  | 
SORBITOL MONO-OLEATE | 92.7 | 0.00 | 0.00 | 0.00 |  |  |  |  |  |  | substantially identical to that of the uncoated PVDF | >39 | 
PEO(4) SORBITOL MONO-STEARATE | 99.5 | 0.00 | 0.00 | 0.00 | None |  |  |  |  | None |  |  | 
CCCCCCCCCCCCOCCOCCOCCOCCO [PEO(4) LAURYL ETHER] | 99.3 | 0.00 | 0.00 | 0.00 | None | 0.08-0.10 | 0.13-0.16 | 2.10 | 1.90 | None |  |  | >5
